Measured values as given in the NIST ThermoML archive (doi:10.1021/je201116t).
Numbers after ± are expanded uncertainties.

Experiment: xn = mol fraction of the nth substance listed
Details: 101 kPa, Liquid; for viscosity: Capillary tube (Ostwald / Ubbelohde) method

CCC(=O)[O-].CC[NH+]1CCNCC1 [N-ethylpiperazinium propionate] + CO
Details | mass density, 298.15 K [kg/m3] | mass density, 303.15 K [kg/m3] | mass density, 308.15 K [kg/m3] | mass density, 313.15 K [kg/m3] | viscosity, 298.15 K [mPa·s] | viscosity, 303.15 K [mPa·s] | viscosity, 308.15 K [mPa·s] | viscosity, 313.15 K [mPa·s]
x2 = 0 | 1008.36 ± 1.2 | 1004.38 ± 1.2 | 1000.33 ± 1.2 | 996.237 ± 1.2 | 243.49 ± 7.6 | 164.81 ± 4.6 | 113.44 ± 2.7 | 80.93 ± 1.8
x2 = 0.107 | 1004.94 ± 1.1 | 1000.96 ± 1.1 | 996.919 ± 1.1 | 992.856 ± 1.1 | 172.19 ± 4.7 | 121.04 ± 2.9 | 86.27 ± 1.8 | 62.74 ± 1.3
x2 = 0.21 | 1000.73 ± 0.94 | 996.739 ± 0.95 | 992.724 ± 0.97 | 988.682 ± 0.98 | 123.07 ± 2.7 | 89.92 ± 1.8 | 65.93 ± 1.2 | 49.08 ± 0.96
x2 = 0.297 | 996.263 ± 0.87 | 992.299 ± 0.88 | 988.292 ± 0.9 | 984.255 ± 0.92 | 84.02 ± 1.6 | 63.49 ± 1.1 | 47.38 ± 0.83 | 36.14 ± 0.62
x2 = 0.402 | 989.36 ± 0.8 | 985.408 ± 0.82 | 981.411 ± 0.83 | 977.382 ± 0.85 | 52.96 ± 0.89 | 40.86 ± 0.67 | 31.63 ± 0.52 | 24.89 ± 0.4
x2 = 0.5021 | 980.548 ± 0.76 | 976.585 ± 0.78 | 972.582 ± 0.79 | 968.548 ± 0.81 | 32.54 ± 0.54 | 25.5 ± 0.4 | 20.36 ± 0.31 | 16.5 ± 0.24
x2 = 0.5994 | 968.97 ± 0.74 | 964.991 ± 0.76 | 960.968 ± 0.78 | 956.912 ± 0.8 | 18.41 ± 0.31 | 15.03 ± 0.22 | 12.4 ± 0.18 | 10.4 ± 0.14
x2 = 0.7015 | 951.447 ± 0.76 | 947.38 ± 0.78 | 943.3 ± 0.8 | 939.188 ± 0.82 | 9.416 ± 0.16 | 7.866 ± 0.11 | 6.73 ± 0.091 | 5.804 ± 0.072
x2 = 0.7998 | 925.328 ± 0.83 | 921.15 ± 0.85 | 916.957 ± 0.87 | 912.733 ± 0.9 | 4.331 ± 0.076 | 3.807 ± 0.05 | 3.366 ± 0.044 | 2.989 ± 0.036
x2 = 0.8999 | 879.78 ± 1 | 875.414 ± 1 | 871.008 ± 1.1 | 866.573 ± 1.1 | 1.754 ± 0.033 | 1.592 ± 0.02 | 1.451 ± 0.018 | 1.327 ± 0.017
